The results in this text go back to BindingDB's records for doi:10.1021/jm300601d (Boehringer Ingelheim Pharmaceuticals, 2012).

pEC50: −log10 of the molar value.

This assay is described as follows: Inhibition of NHE1 in human platelet rich plasma assessed as reduction of propionate medium induced platelet swelling measured every 6 secs for 5 mins.
Regarding `CS(=O)(=O)c1ccc(C(=O)N2CCC(c3ccc(C(=O)NC(=N)N)cc3C(F)(F)F)CC2)cc1`, the pEC50 is 7.03.
To `CS(=O)(=O)c1ccccc1C(=O)N1CCC(c2ccc(C(=O)NC(=N)N)cc2C(F)(F)F)CC1` belongs 6.57; to `N=C(N)NC(=O)c1ccc(C2CCN(C(=O)c3ccccc3)CC2)c(C(F)(F)F)c1`, 6.96.
For `CC(C)CC(=O)N1CCC(c2ccc(C(=O)NC(=N)N)cc2C(F)(F)F)CC1` the value was 6.66; for `COCC(=O)N1CCC(c2ccc(C(=O)NC(=N)N)cc2C(F)(F)F)CC1`, 7.32.
For `N=C(N)NC(=O)c1ccc(C2CCN(C(=O)c3ccc[nH]3)CC2)c(C(F)(F)F)c1` the value was 6.62; for `CNC(=O)c1ccc(C(=O)N2CCC(c3ccc(C(=O)NC(=N)N)cc3C(F)(F)F)CC2)cc1`, 6.67.
Consider `CCC(=O)N1CCC(c2cc(C)c(C(=O)NC(=N)N)cc2S(C)(=O)=O)CC1`, for which the pEC50 is 7.06.
For `CC(=O)N1CCC(c2cc(C)c(C(=O)NC(=N)N)cc2S(C)(=O)=O)CC1` the value was 7.25.
Take `CC(C)(C)C(=O)N1CCC(c2ccc(C(=O)NC(=N)N)cc2C(F)(F)F)CC1`: the pEC50 is 6.90.
On to `N=C(N)NC(=O)c1ccc(C2CCN(C(=O)c3ccc(O)cc3)CC2)c(C(F)(F)F)c1`, for which the pEC50 is 6.86.
For `N=C(N)NC(=O)c1ccc(N2CCC(NC(=O)c3ccc[nH]3)CC2)c(C(F)(F)F)c1` the value was 6.02.
To `N=C(N)NC(=O)c1ccc(N2CCCC(NC(=O)c3ccc[nH]3)C2)c(C(F)(F)F)c1` (centres undefined) belongs 5.46.
Take `Cn1ccnc1C(=O)N1CCC(c2ccc(C(=O)NC(=N)N)cc2C(F)(F)F)CC1`: the pEC50 was 6.95.
For `CN(C)S(=O)(=O)c1ccc(C(=O)N2CCC(c3ccc(C(=O)NC(=N)N)cc3C(F)(F)F)CC2)cc1` the value was 6.62; for `COc1ccc(C(=O)N2CCC(c3ccc(C(=O)NC(=N)N)cc3C(F)(F)F)CC2)cc1`, 6.30; for `N#Cc1ccccc1C(=O)N1CCC(c2ccc(C(=O)NC(=N)N)cc2C(F)(F)F)CC1`, 6.70.
For `CC(=O)N1CCC(c2ccc(C(=O)NC(=N)N)cc2S(C)(=O)=O)CC1` the value was 6.72; for `N=C(N)NC(=O)c1ccc(C2CCN(C(=O)c3cccc(Cl)c3)CC2)c(C(F)(F)F)c1`, 6.00.
To `N=C(N)NC(=O)c1ccc(C2CCN(C(=O)C3CC3)CC2)c(C(F)(F)F)c1` belongs 7.30; to `CCC(=O)N1CCC(c2ccc(C(=O)NC(=N)N)cc2S(C)(=O)=O)CC1`, 6.58.
As to `CS(=O)(=O)c1cccc(C(=O)N2CCC(c3ccc(C(=O)NC(=N)N)cc3C(F)(F)F)CC2)c1`, the pEC50 is 7.30.
For `COc1cc(C2CCN(C(C)=O)CC2)c(C(F)(F)F)cc1C(=O)NC(=N)N`, the pEC50 is 6.36.
`N=C(N)NC(=O)c1ccc(N2CCN(C(=O)c3ccc[nH]3)CC2)c(C(F)(F)F)c1` [SABIPORIDE]: the pEC50 is 6.76.
Regarding `N=C(N)NC(=O)c1ccc(C2CCN(C(=O)c3ccc(F)cc3)CC2)c(C(F)(F)F)c1`, the pEC50 is 6.74.
To `N=C(N)NC(=O)c1ccc(N2CCC(NC(=O)c3ccc[nH]3)C2)c(C(F)(F)F)c1` (centres undefined) belongs 5.80.
To `CNS(=O)(=O)c1ccc(C(=O)N2CCC(c3ccc(C(=O)NC(=N)N)cc3C(F)(F)F)CC2)cc1` belongs 7.06.
To `Cn1cncc1C(=O)N1CCC(c2ccc(C(=O)NC(=N)N)cc2C(F)(F)F)CC1` belongs 7.21.
With `N=C(N)NC(=O)c1ccc(C2CCN(C(=O)c3ccc(-n4ccnc4)cc3)CC2)c(C(F)(F)F)c1`, the pEC50 is 6.77.
To `N=C(N)NC(=O)c1ccc(C2CCN(C(=O)c3ccc(C(N)=O)cc3)CC2)c(C(F)(F)F)c1` belongs 7.44; to `N=C(N)NC(=O)c1ccc(C2CCN(C(=O)c3ccc(Cl)cc3)CC2)c(C(F)(F)F)c1`, 5.95; to `CC(=O)N1CCC(c2cc(C)c(C(=O)NC(=N)N)cc2C(F)(F)F)CC1`, 7.55.
For `N=C(N)NC(=O)c1ccc(C2CCN(C(=O)c3ccccn3)CC2)c(C(F)(F)F)c1`, the pEC50 is 7.10.
With `N=C(N)NC(=O)c1ccc(C2CCN(C(=O)c3ccc(S(N)(=O)=O)cc3)CC2)c(C(F)(F)F)c1`, the pEC50 is 7.64.
For `N=C(N)NC(=O)c1ccc(C2CCN(C(=O)c3ccccc3Cl)CC2)c(C(F)(F)F)c1` the value was 6.31; for `N=C(N)NC(=O)c1ccc(C2CCN(C(=O)C3CCCC3)CC2)c(C(F)(F)F)c1`, 6.38.
To `N#Cc1cccc(C(=O)N2CCC(c3ccc(C(=O)NC(=N)N)cc3C(F)(F)F)CC2)c1` belongs 6.95; to `N=C(N)NC(=O)c1ccc(C2CCN(C(=O)c3cccnc3)CC2)c(C(F)(F)F)c1`, 7.49; to `N=C(N)NC(=O)c1ccc(C2CCN(C(=O)c3ccc(-c4cnco4)cc3)CC2)c(C(F)(F)F)c1`, 6.43.
For `N=C(N)NC(=O)c1ccc(C2CCN(C(=O)c3ccncc3)CC2)c(C(F)(F)F)c1` the value was 7.15.
Consider `CCCC(=O)N1CCC(c2ccc(C(=O)NC(=N)N)cc2C(F)(F)F)CC1`, for which the pEC50 was 6.70.
For `CCC(=O)N1CCC(c2ccc(C(=O)NC(=N)N)cc2C(F)(F)F)CC1` the value was 7.51.
As for `N=C(N)NC(=O)c1ccc(C2CCN(C(=O)c3ccc(=O)[nH]c3)CC2)c(C(F)(F)F)c1`, the pEC50 was 7.60.
Regarding `N=C(N)NC(=O)c1ccc(C2CCN(C(=O)c3cccc(-c4cnco4)c3)CC2)c(C(F)(F)F)c1`, the pEC50 was 6.45.
To `N=C(N)NC(=O)c1ccc(C2CCN(C(=O)c3ccc(C(F)(F)F)cc3)CC2)c(C(F)(F)F)c1` belongs 6.27; to `CC(C)C(=O)N1CCC(c2ccc(C(=O)NC(=N)N)cc2C(F)(F)F)CC1`, 7.10; to `Cc1cc(C(=O)N2CCC(c3ccc(C(=O)NC(=N)N)cc3C(F)(F)F)CC2)nn1C`, 6.94.
With `CN(C)C(=O)c1ccc(C(=O)N2CCC(c3ccc(C(=O)NC(=N)N)cc3C(F)(F)F)CC2)cc1`, the pEC50 is 7.11.
To `N#Cc1ccc(C(=O)N2CCC(c3ccc(C(=O)NC(=N)N)cc3C(F)(F)F)CC2)cc1` belongs 6.82.
